# According to US12304916B2, “Thienopyridinyl and thiazolopyridinyl compounds useful as IRAK4 inhibitors” (BRISTOL-MYERS SQUIBB COMPANY, priority 2019, dated 2025):
# Legend:
# IRAK4 = IRAK4 (Homo sapiens (Human), UniProt Q9NWZ3); experiment: IRAK4 Inhibition Assay; format: biochemical; details: ATP 500 μM; IRAK4 0.6 nM; 60 min at room temperature
# [1] = tested on: IL-6 levels in human whole blood stimulated with a TLR2 agonist (lipoteichoic acid); experiment: IRAK4 Whole Blood Assay; format: cell-based; details: 10 μg/mL lipoteichoic acid for 5 hours, IL-6 readout
# Procedure: Human whole blood containing the anti-coagulant ACD-A was plated in 384-well plate (25 μL/well) and incubated with compounds for 60 minutes at 37° C. in a 5% CO2 incubator. The blood was stimulated with a TLR2 agonist, 10 μg/mL final concentration of lipoteichoic acid (Invivogen, San Diego, CA) in 25 μL RPMI (Gibco) for 5 hours in a 5% CO2 incubator. At the end of the incubation, plates were centrifuged at 2300 rpm for 5 minutes. Supernatants were harvested and analyzed for IL-6 levels by Flow Cytometry beads assay (BD Biosciences, San Jose, CA).
# IRAK4, sequence (Q9NWZ3 whole entry, species assumed): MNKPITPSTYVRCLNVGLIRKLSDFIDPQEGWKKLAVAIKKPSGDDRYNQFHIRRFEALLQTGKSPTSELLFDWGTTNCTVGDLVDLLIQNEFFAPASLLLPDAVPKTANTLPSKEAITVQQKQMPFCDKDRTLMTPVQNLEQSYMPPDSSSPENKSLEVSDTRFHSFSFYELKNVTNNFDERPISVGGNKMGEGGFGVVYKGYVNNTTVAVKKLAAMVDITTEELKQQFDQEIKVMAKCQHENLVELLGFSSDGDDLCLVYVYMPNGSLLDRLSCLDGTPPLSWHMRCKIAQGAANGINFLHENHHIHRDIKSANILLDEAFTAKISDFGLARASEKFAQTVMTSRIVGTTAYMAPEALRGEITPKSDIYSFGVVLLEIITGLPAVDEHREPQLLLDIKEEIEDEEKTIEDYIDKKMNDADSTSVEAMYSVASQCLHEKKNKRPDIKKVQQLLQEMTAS
Structure (SMILES),IC50 (IRAK4),EC50 [1]
"Cc1ncc(-c2cc3c(NC(C)C)c(C(=O)NC[C@@H](F)C(C)(C)O)cnc3s2)s1 [Example 57, (R)-N-(2-fluoro-3-hydroxy-3-methylbutyl)-4-(isopropylamino)-2-(2-methylthiazol-5-yl)thieno[2,3-b]pyridine-5-carboxamide]",8.2 nM,3540 nM
"CC(C)Nc1c(C(=O)NCc2ncn[nH]2)cnc2sc(-c3cncs3)cc12 [Example 42, N-((1H-1,2,4-triazol-5-yl)methyl)-4-(isopropylamino)-2-(thiazol-5-yl)thieno[2,3-b]pyridine-5-carboxamide]",12.2 nM,> 20000 nM
"CC(C)CCNC(=O)c1cnc2sc(-c3cncs3)cc2c1NC(C)C [Example 30, N-isopentyl-4-(isopropylamino)-2-(thiazol-5-yl)thieno[2,3-b]pyridine-5-carboxamide]",7.5 nM,> 20000 nM

# Results, then the molecule that gave them:
IC50 (IRAK4),EC50 [1],Structure (SMILES)
10.3 nM,> 20000 nM,"CC(C)Nc1c(C(=O)NC[C@@H](F)C(C)(C)O)cnc2sc(-c3ccnnc3)cc12 [Example 32, (R)-N-(2-fluoro-3-hydroxy-3-methylbutyl)-4-(isopropylamino)-2-(pyridazin-4-yl)thieno[2,3-b]pyridine-5-carboxamide]"
5.3 nM,3420 nM,"CC(C)Nc1c(C(=O)NC[C@@H](F)C(C)(C)O)cnc2sc(-c3cccnc3)cc12 [Example 22, (R)-N-(2-fluoro-3-hydroxy-3-methylbutyl)-4-(isopropylamino)-2-(pyridin-3-yl)thieno[2,3-b]pyridine-5-carboxamide]"
4.8 nM,4250 nM,"CC(C)Nc1c(C(=O)NC[C@@H](F)C(C)(C)O)cnc2sc(-c3ccncc3)cc12 [Example 23, (R)-N-(2-fluoro-3-hydroxy-3-methylbutyl)-4-(isopropylamino)-2-(pyridin-4-yl) thieno[2,3-b]pyridine-5-carboxamide]"
